Reference: article PMC11672637, “7-O-Carboxylic Acid-Substituted 3-O-Alkyl Difluoroquercetin; An Aztreonam-Potentiating Agent Against Carbapenemase-Producing Pseudomonas aeruginosa Through Simultaneous Inhibition of Metallo-β-Lactamase and Efflux Pump” (Antibiotics, 2024)

How the values were obtained:
[1] = tested on: efflux pump activity in P. aeruginosa (PA-017, blaNDM); assay: EtBr accumulation, inhibition of efflux pump activity; assay type: cell-based; details: EtBr fluorescence compared with positive control CCCP
Method: The NDM-producing P. aeruginosa clinical isolate (PA-017, blaNDM) (5 mL, LB medium) was grown to reach the mid-log phase. After centrifugation at 3500 rpm for 15 min, the bacterial pellet was washed twice with PBS and resuspended to OD600 = 0.3 in PBS. To each well of a flat-bottomed black 96-well plate, 182 µL of the bacterial suspension, 4 µL of glucose [final concentration = 0.4% (w/v)], 4 µL of the synthesized compounds or positive control CCCP, and 10 µL of EtBr (final concentration = 1 µg/mL) were added. The plate was incubated at 37 °C, and fluorescence emission from EtBr (λex 480 nm/λem 630 nm) was recorded every 2 min (for 60 min) using a Cytation 5 imaging multi-mode reader (BioTek Instruments, Inc., Winooski, VT, USA).

NDM-1 = molecular target: T1, NDM-1 (Klebsiella pneumoniae, UniProt C7C422); assay: β-lactamase inhibition assay (imipenem); assay type: biochemical; details: imipenem substrate; read-out: BLi, IC50 NDM-1
T1 construct: purchased RayBiotech, Inc. 230-00554
T1 sequence (C7C422 29-270, looked up, species assumed): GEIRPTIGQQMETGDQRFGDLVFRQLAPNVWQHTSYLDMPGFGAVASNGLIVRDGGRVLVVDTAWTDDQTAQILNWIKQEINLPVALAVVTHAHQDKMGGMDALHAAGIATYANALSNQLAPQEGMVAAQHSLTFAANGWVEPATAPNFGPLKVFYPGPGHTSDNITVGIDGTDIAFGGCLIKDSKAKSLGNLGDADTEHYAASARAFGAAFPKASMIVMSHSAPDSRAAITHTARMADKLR
Method: (§1) Recombinant AmpC, OXA-48 (residues 23–265) and VIM-2 (residues 27–266) were prepared from Escherichia coli based on previously established protocols. KPC-2 and NDM-1 are commercially available from LifeSpan Biosciences, Inc., Seattle, WA, USA (LS-G26598) and RayBiotech, Inc., Peachtree Corners, GA, USA (230-00554), respectively. For β-lactamase inhibition assay, in a 96-well plate, 70–0.1 μM (in PBS) of the synthesized compounds (1~14) (100 μL) were mixed with diluted β-lactamase stock (2% DMSO in 200 μL). In a separate 96-well plate, a substrate of AmpC, KPC-2, OXA-48, and VIM-2 (nitrocefin) and NDM-1 (imipenem) were added into each well (final concentrations of 70 μM for nitrocefin and 100 μM for imipenem). After incubation at 37 °C for 20 min, the mixture of the synthesized compounds (1~14) and β-lactamase in one plate was added to the substrate in the other plate. Enzymatic hydrolysis of the substrate was then monitored by a Cytation 5 imaging multimode reader (BioTek Instruments Inc., Winooski, VT, USA) at 486 nm and 300 nm for nitrocefin and imipenem, respectively, for 15 min. The rates of hydrolysis in the presence of the inhibitors were determined when the reaction rate plateaued. Comparison of the enzymatic hydrolysis rates in the presence and the absence of inhibitors (100%) provided the percentage of enzyme inhibition at each concentration of the synthesized compounds. The IC50 values were obtained after non-linear regression (sigmoidal dose-responses) by GraphPad Prism 5 (GraphPad Software, Boston, MA, USA).

VIM-2 = molecular target: T2, VIM-2 (Escherichia coli, UniProt Q5U7L7); assay: β-lactamase inhibition assay (nitrocefin); assay type: biochemical; details: nitrocefin substrate; read-out: BLi, IC50 VIM-2
T2 construct: VIM-2 (residues 27–266); made in house; host or cells: Escherichia coli
Method: as §1

OXA-48 = molecular target: T3, OXA-48 (Klebsiella pneumoniae, UniProt Q6XEC0); assay: β-lactamase inhibition assay (nitrocefin); assay type: biochemical; details: nitrocefin substrate; read-out: BLi, IC50 OXA-48
T3 construct: OXA-48 (residues 23–265); made in house; host or cells: Escherichia coli
T3 sequence (Q6XEC0 23-265 limits assumed): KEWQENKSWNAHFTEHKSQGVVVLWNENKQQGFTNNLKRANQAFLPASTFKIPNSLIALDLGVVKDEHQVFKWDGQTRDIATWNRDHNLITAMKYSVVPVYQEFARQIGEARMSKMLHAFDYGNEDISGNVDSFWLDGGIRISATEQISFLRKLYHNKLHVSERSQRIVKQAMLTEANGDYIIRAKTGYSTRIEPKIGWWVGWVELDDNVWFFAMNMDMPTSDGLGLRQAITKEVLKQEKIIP
Method: as §1

KPC-2 = molecular target: T4, KPC-2 (Klebsiella pneumoniae, UniProt Q9F663); assay: β-lactamase inhibition assay (nitrocefin); assay type: biochemical; details: nitrocefin substrate; read-out: BLi, IC50 KPC-2
T4 construct: purchased LifeSpan Biosciences, Inc. LS-G26598
T4 sequence (Q9F663 25-293, looked up, species assumed): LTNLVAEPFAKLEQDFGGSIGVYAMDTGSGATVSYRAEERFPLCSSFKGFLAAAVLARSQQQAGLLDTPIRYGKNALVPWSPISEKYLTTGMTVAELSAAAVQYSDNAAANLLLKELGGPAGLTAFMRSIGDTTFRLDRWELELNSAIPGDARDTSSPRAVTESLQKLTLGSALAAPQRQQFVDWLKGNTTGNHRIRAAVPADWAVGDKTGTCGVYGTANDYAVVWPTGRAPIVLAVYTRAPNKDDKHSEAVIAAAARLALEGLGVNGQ
Method: as §1

AmpC = assay: β-lactamase inhibition assay (nitrocefin); assay type: biochemical; details: nitrocefin substrate; read-out: BLi, IC50 AmpC
Method: as §1

[2] = tested on: NDM-1-Producing P. aeruginosa (PA-017, blaNDM); assay: MIC / checkerboard with ATM; assay type: cell-based; details: PA-017; for MIC: Pseudomonas aeruginosa, compound alone, read-out: MIC, Cmpd
[3] = rat, cited from earlier work
[4] = tested on: Ambler Class A β-lactamases; design: method as in earlier work; details: Table S1; cited from earlier work
[5] = tested on: Ambler Class D β-lactamases; design: method as in earlier work; details: Table S1; cited from earlier work
[6] = tested on: Ambler Class C β-lactamases; design: method as in earlier work; details: Table S1; cited from earlier work

Structure (SMILES) | EPi (inhibition of efflux pump activity) [1] | IC50 (NDM-1) [µM] | IC50 (VIM-2) [µM] | IC50 (OXA-48) [µM] | IC50 (KPC-2) [µM] | IC50 (AmpC) [µM] | FD (fold decrease in the MIC of ATM upon combination with the compound) [2] | MIC [2] [µg/mL] | F (mean oral bioavailability) [3] [%] | AUClast ([3]; oral administration) [mg·h/L] | Cmax ([3]; oral administration) [mg/L] | BLi activity (Ambler Class A) [4] | BLi activity (Ambler Class D) [5] | BLi activity (Ambler Class C) [6]
CC(C)(C)CCOc1c(-c2ccc(F)c(F)c2)oc2cc(OCC(=O)N[C@@H](CCCCN)C(=O)O)cc(O)c2c1=O.Cl [Compound 11, (S)-6-Amino-2-(2-((2-(3,4-difluorophenyl)-3-(3,3-dimethylbutoxy)-5-hydroxy-4-oxo-4H-chromen-7-yl)oxy)acetamido)hexanoic Acid Hydrochloride] | - ^f | > 50 | > 100 | > 100 | > 50 | > 50 | 1 | > 256 |  |  |  |  |  | 
O=C(O)COc1cc(O)c2c(=O)c(OCCC3CCCCC3)c(-c3ccc(F)c(F)c3)oc2c1 [Compound 7, 2-((3-(2-Cyclohexylethoxy)-2-(3,4-difluorophenyl)-5-hydroxy-4-oxo-4H-chromen-7-yl)oxy)acetic Acid] | ↑ ^g | 14.7 ± 1.6 | 21 ± 1.3 | > 100 | > 50 | > 50 | 4 | > 256 |  |  |  |  |  | 
CC(C)(C)CCOc1c(-c2ccc(F)c(F)c2)oc2cc(OCC(=O)Nc3ccccc3)cc(O)c2c1=O [Compound 9, 2-((2-(3,4-Difluorophenyl)-3-(3,3-dimethylbutoxy)-5-hydroxy-4-oxo-4H-chromen-7-yl)oxy)-N-phenylacetamide] | - ^f | 7.6 ± 0.3 | 12.6 ± 1.2 | 6.4 ± 0.6 | 26.2 ± 1.5 | > 50 | 1 | > 256 |  |  |  |  |  | 
CN1CCN(CCOc2cc(O)c3c(=O)c(OCCC(C)(C)C)c(-c4ccc(F)c(F)c4)oc3c2)CC1 [Compound 13, 2-(3,4-Difluorophenyl)-3-(3,3-dimethylbutoxy)-5-hydroxy-7-(2-(4-methylpiperazin-1-yl)ethoxy)-4H-chromen-4-one] | - ^f | > 50 | > 100 | > 100 | > 50 | > 50 | 2 | > 256 |  |  |  |  |  | 
O=C(O)CC(Oc1cc(O)c2c(=O)c(OCCC3CCCCC3)c(-c3ccc(F)c(F)c3)oc2c1)C(=O)O (stereo not drawn) [Compound 4, 2-((3-(2-Cyclohexylethoxy)-2-(3,4-difluorophenyl)-5-hydroxy-4-oxo-4H-chromen-7-yl)oxy)succinic Acid] | - ^f | > 50 | > 100 | > 100 | > 50 | > 50 | 1 | > 256 |  |  |  |  |  | 
C[N+](C)(CCNC(=O)COc1cc(O)c2c(=O)c(OCCC3CCCCC3)c(-c3ccc(F)c(F)c3)oc2c1)CC(=O)[O-] [Compound 8, 2-((2-(2-((3-(2-Cyclohexylethoxy)-2-(3,4-difluorophenyl)-5-hydroxy-4-oxo-4H-chromen-7-yl)oxy)acetamido)ethyl)dimethylammonio)acetate] | - ^f | > 50 | > 100 | > 100 | > 50 | > 50 | 2 | > 256 |  |  |  |  |  | 
O=C(O)COc1cc(O)c2c(=O)c(OCCC3CCCC3)c(-c3ccc(F)c(F)c3)oc2c1 [Compound 6, 2-((3-(2-Cyclopentylethoxy)-2-(3,4-difluorophenyl)-5-hydroxy-4-oxo-4H-chromen-7-yl)oxy)acetic Acid] | ↑ ^g | 16.1 ± 1.1 | 37.3 ± 0.6 | > 100 | > 50 | > 50 | 4 | > 256 |  |  |  |  |  | 
CC(C)(C)CCOc1c(-c2ccc(F)c(F)c2)oc2cc(O)cc(O)c2c1=O [Compound 1] | ↑↑↑ ^e |  |  |  |  | 18.9 ± 1.8 | 2 | > 256 | 0.27 | 0.02 | 0.01 |  |  | 
NC(=O)[C@@H]1CC[C@@H]2CN1C(=O)N2OS(=O)(=O)O [AVI, avibactam] |  |  |  |  |  |  |  |  |  |  |  | inhibits | inhibits | inhibits
